In US11312719B2, “9-substituted amino triazolo quinazoline derivatives as adenosine receptor antagonists, pharmaceutical compositions and their use” (Merck Sharp & Dohme Corp., priority 2018, dated 2022):

Key:
human A2A receptors = human A2A receptors (Homo sapiens (Human), UniProt P29274); assay: A2A antagonism in cAMP cell-based assay (LANCE cAMP, HEK293); conditions: HEK293 cells expressing human A2A receptor
Description: (§1) Measurement of A2A and A2B Antagonism in cAMP Cell-Based Assay
(§2) The ability of compounds to antagonize human A2A and A2B adenosine receptors was determined using a kit to measure changes in intracellular cyclic AMP levels (LANCE cAMP 384 Kit, Perkin Elmer, Cat. No. AD0264). HEK293 cells recombinantly expressing either human A2A or A2B receptors, previously frozen in Recovery Medium (Life Technologies, Cat. No. 12648-010) were thawed and diluted into stimulation buffer (HBSS (Hyclone SH 30268.01), 5 mM HEPES (Gibco 15630-106), 200 nM rolipram (Tocris, Cat. No. 0905), and 1.5% (V/v) BSA stabilizer (kit component). The cell suspension was centrifuged at 200×g for 10 min and then resuspended in stimulation buffer, supplemented with a 1:10 000 dilution of Alexa Fluor 647 anti-cAMP antibody, to a density of 6.0×10^5 cells/mL. A Labcyte Echo 550 acoustic dispenser was used to transfer up to 25 nL of test compound dissolved in DMSO into the wells of a dry Optiplate-384 plate (Perkin Elmer, Cat. No. 6008289). All subsequent liquid additions were performed using a multichannel pipettor. Next, 5 μL of the cell suspension was added to the wells of the Optiplate-384 and incubated for 30 min. at 37° C. and 5% CO2 in a humidified environment. After this time 5 μL of either 300 nM or 600 nM adenosine (Sigma Cat. No. A9251) for A2A and A2B respectively was added and incubated for 30 minutes at 37° C. and 5% CO2 in a humidified environment. At this time detection mix was prepared by combining the LANCE Eu-W8044 labeled streptavidin and Biotin-cAMP in detection buffer according to the manufacturers protocol. 10 μL of the detection mix was added to each well of the Optiplate-384 which was covered with a plate seal and incubated under ambient conditions for 2 hours prior to reading the plate using an Envision (Perkin Elmer, Waltham, Mass.) multimode plate reader. Data was normalized by defining minimal effect as stimulation in the presence of 0.25% (v/v) DMSO and maximal effect as stimulation in the presence of 1 μM ZM241385 (Cayman, Cat. No. 1036). Curve fitting of the percent effect data versus the log of compound concentration used a 4-parameter concentration response curve fitting algorithm to calculate IC50 values. Compound concentrations tested were 10,000, 3,333, 1,111, 370.4, 123.4, 41.2, 13.7, 4.6, 1.5 and 0.5 nM with 0.25% residual DMSO.

human A2B receptors = human A2B receptors (Homo sapiens (Human), UniProt P29275); assay: A2B antagonism in cAMP cell-based assay (LANCE cAMP, HEK293); conditions: HEK293 cells expressing human A2B receptor
Description: as §1, §2

[1] = molecular target: human A2a adenosine receptor (Homo sapiens (Human), UniProt P29274); assay: A2a receptor affinity radioligand binding assay ([3H] SCH58261); conditions: membranes from HEK293 or CHO cells expressing human A2a receptor
How it was run: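 Membranes from HEK293 or CHO cells expressing human A2a were preincubated 15–30 min at room temperature with compound, then incubated 60 min at room temperature with [3H]SCH58261 (diluted to 4 nM) in 50 mM Tris pH 7.4, 10 mM MgCl2, 0.005% Tween20. Bound radioactivity was collected by filtration; nonspecific binding defined with 1 μM ZM241385; IC50 from 4-parameter logistic fit.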

[2] = molecular target: human A2b adenosine receptor (Homo sapiens (Human), UniProt P29275); assay: A2b radioligand filtration binding assay; conditions: membranes from HEK293 cells expressing human A2b receptor
How it was run: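 Membranes from HEK293 cells expressing human A2b receptor preincubated with compound 15 to 30 min at room temperature, then tritiated proprietary A2b antagonist (diluted to 14 nM before addition) added in PBS pH 7.4 for 60 min at room temperature. Bound radioactivity by filtration and scintillation; non-specific binding with 20 μM NECA; IC50 by 4-parameter logistic fit.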

human A2A receptors, sequence (P29274 whole entry): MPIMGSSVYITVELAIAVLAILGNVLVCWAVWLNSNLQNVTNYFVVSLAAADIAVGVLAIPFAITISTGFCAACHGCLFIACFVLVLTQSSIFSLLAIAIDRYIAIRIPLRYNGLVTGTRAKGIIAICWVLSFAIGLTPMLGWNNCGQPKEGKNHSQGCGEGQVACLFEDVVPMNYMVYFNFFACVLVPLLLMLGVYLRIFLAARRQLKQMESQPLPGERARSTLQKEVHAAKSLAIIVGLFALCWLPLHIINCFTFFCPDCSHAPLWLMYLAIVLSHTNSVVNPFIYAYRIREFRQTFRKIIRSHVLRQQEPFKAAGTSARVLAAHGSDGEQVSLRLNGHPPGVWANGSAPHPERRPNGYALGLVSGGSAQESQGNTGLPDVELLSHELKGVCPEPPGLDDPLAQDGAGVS
human A2a adenosine receptor, sequence (P29274 whole entry): as above
human A2B receptors, sequence (P29275 whole entry): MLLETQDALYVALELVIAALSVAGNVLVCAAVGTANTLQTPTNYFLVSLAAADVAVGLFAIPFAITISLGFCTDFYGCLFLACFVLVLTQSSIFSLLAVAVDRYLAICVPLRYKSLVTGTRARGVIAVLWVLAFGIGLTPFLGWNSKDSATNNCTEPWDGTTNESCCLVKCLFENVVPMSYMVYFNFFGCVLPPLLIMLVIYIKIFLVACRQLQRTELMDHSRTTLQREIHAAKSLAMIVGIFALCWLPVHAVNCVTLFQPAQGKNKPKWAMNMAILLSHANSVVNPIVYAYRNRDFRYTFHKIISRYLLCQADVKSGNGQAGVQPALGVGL
human A2b adenosine receptor, sequence (P29275 whole entry): as above

Row | IC50 (human A2A receptors) | IC50 (human A2B receptors) | IC50 [1] | IC50 [2] | Structure (SMILES)
1 | 4.9 nM | 346 nM |  |  | CCC(C)(O)Cn1cc(N2CCC[C@@H](c3nc4c5cc(F)c(OC)cc5nc(N)n4n3)C2)cn1 (single isomer, unassigned) [Example 184, (S or R)-1-(4-((R)-3-(5-amino-9-fluoro-8-methoxy-[1,2,4]triazolo[1,5-c]quinazolin-2-yl)piperidin-1-yl)-1H-pyrazol-1-yl)-2-methylbutan-2-ol]
2 | 439 nM | 4450 nM |  |  | CC(O)C(C)n1cc(N2CC(c3nc4c5cc(F)cc(F)c5nc(N)n4n3)CCC2C)cn1 (single isomer, unassigned) [Example 235, (2S,3S or 2R,3R)-3-(4-((2R,5S or 2S,5R)-5-(5-amino-7,9-difluoro-[1,2,4]triazolo[1,5-c]quinazolin-2-yl)-2-methylpiperidin-1-yl)-1H-pyrazol-1-yl)butan-2-ol]
3 | 0.9 nM | 92.4 nM |  |  | Cc1nn(C(C)C(C)O)cc1N1CCC[C@@H](c2nc3c4cc(F)cc(F)c4nc(N)n3n2)C1 (single isomer, unassigned) [Example 191, (2S,3S or 2R,3R)-3-(4-((R)-3-(5-amino-7,9-difluoro-[1,2,4]triazolo[1,5-c]quinazolin-2-yl)piperidin-1-yl)-3-methyl-1H-pyrazol-1-yl)butan-2-ol]
4 | 1 nM | 29.3 nM |  |  | COc1cc(F)cc2c1nc(N)n1nc(C3CC(C)CN(c4cnn(CC(C)(C)O)c4)C3)nc21 (single isomer, unassigned) [Example 159, 1-(4-((3R,5S or 3S,5R)-3-(5-amino-9-fluoro-7-methoxy-[1,2,4]triazolo[1,5-c]quinazolin-2-yl)-5-methylpiperidin-1-yl)-1H-pyrazol-1-yl)-2-methylpropan-2-ol]
5 | 46.8 nM | 1200 nM |  |  | CC(O)C(C)n1cc(N2CC(c3nc4c5cc(F)cc(F)c5nc(N)n4n3)CCC2C)cn1 (single isomer, unassigned) [Example 234, (2R,3R or 2S,3S)-3-(4-((2R,5S or 2S,5R)-5-(5-amino-7,9-difluoro-[1,2,4]triazolo[1,5-c]quinazolin-2-yl)-2-methylpiperidin-1-yl)-1H-pyrazol-1-yl)butan-2-ol]
6 | 0.4 nM |  |  |  | COc1cc(F)cc2c1nc(N)n1nc(C3CC(C)CN(c4cn(C(C)C(C)O)nc4C)C3)nc21 (single isomer, unassigned) [Example 225, (2R,3R or 2S,3S)-3-(4-((3R,5S or 3S,5R)-3-(5-amino-9-fluoro-7-methoxy-[1,2,4]triazolo[1,5-c]quinazolin-2-yl)-5-methylpiperidin-1-yl)-3-methyl-1H-pyrazol-1-yl)butan-2-ol]
7 | 0.4 nM |  |  |  | COc1cc(F)cc2c1nc(N)n1nc(C3CC(C)CN(c4cn(C(C)C(C)O)nc4C)C3)nc21 (single isomer, unassigned) [Example 224, (2S,3S or 2R,3R)-3-(4-((3R,5S or 3S,5R)-3-(5-amino-9-fluoro-7-methoxy-[1,2,4]triazolo[1,5-c]quinazolin-2-yl)-5-methylpiperidin-1-yl)-3-methyl-1H-pyrazol-1-yl)butan-2-ol]
8 | 40.2 nM |  |  |  | COc1cc(F)cc2c1nc(N)n1nc(C3CC(C)CN(c4cn(C(C)C(C)O)nc4C)C3)nc21 (single isomer, unassigned) [Example 227, (2S,3S or 2R,3R)-3-(4-((3S,5R or 3R,5S)-3-(5-amino-9-fluoro-7-methoxy-[1,2,4]triazolo[1,5-c]quinazolin-2-yl)-5-methylpiperidin-1-yl)-3-methyl-1H-pyrazol-1-yl)butan-2-ol]
9 | 17.6 nM |  |  |  | COc1cc(F)cc2c1nc(N)n1nc(C3CC(C)CN(c4cn(C(C)C(C)O)nc4C)C3)nc21 (single isomer, unassigned) [Example 226, (2R,3R or 2S,3S)-3-(4-((3S,5R or 3R,5S)-3-(5-amino-9-fluoro-7-methoxy-[1,2,4]triazolo[1,5-c]quinazolin-2-yl)-5-methylpiperidin-1-yl)-3-methyl-1H-pyrazol-1-yl)butan-2-ol]
10 |  |  | 3.6 nM | 17.5 nM | COc1cc(F)cc2c1nc(N)n1nc([C@@H]3CCCN(c4ccc(OC(F)F)nc4)C3)nc21 [Example 33, (R)-2-(1-(6-(difluoromethoxy)pyridin-3-yl)piperidin-3-yl)-9-fluoro-7-methoxy-[1,2,4]triazolo[1,5-c]quinazolin-5-amine]
11 |  |  | 0.6 nM | 12.2 nM | COc1cc(F)cc2c1nc(N)n1nc([C@@H]3CCCN(c4ccc(OC(C)C)nc4)C3)nc21 [Example 35, (R)-9-fluoro-2-(1-(6-isopropoxypyridin-3-yl)piperidin-3-yl)-7-methoxy-[1,2,4]triazolo[1,5-c]quinazolin-5-amine]
12 |  |  | 2.1 nM | 137 nM | CCn1cc([C@@]2(O)CCCC(c3nc4c5cc(F)c(OC)cc5nc(N)n4n3)C2)cn1 (single isomer, unassigned) [Example 146, (1R or 1S,3R or 3S)-3-(5-amino-9-fluoro-8-methoxy-[1,2,4]triazolo[1,5-c]quinazolin-2-yl)-1-(1-ethyl-1H-pyrazol-4-yl)cyclohexan-1-ol]
13 |  |  | 0.6 nM | 786 nM | COc1cc(F)cc2c1nc(N)n1nc(C3CC(F)CN(c4cn(CC(C)(C)O)nc4C)C3)nc21 (single isomer, unassigned) [Example 70, 1-(4-((3R,5S or 3S,5R)-3-(5-amino-9-fluoro-7-methoxy-[1,2,4]triazolo[1,5-c]quinazolin-2-yl)-5-fluoropiperidin-1-yl)-3-methyl-1H-pyrazol-1-yl)-2-methylpropan-2-ol]
14 |  |  | 0.5 nM | 6.9 nM | COc1cc(F)cc2c1nc(N)n1nc([C@@H]3CCCN(c4cnn(C(C)(C)CO)c4)C3)nc21 [Example 32, (R)-2-(4-(3-(5-amino-9-fluoro-7-methoxy-[1,2,4]triazolo[1,5-c]quinazolin-2-yl)piperidin-1-yl)-1H-pyrazol-1-yl)-2-methylpropan-1-ol]
15 |  |  | 0.3 nM | 2.4 nM | COc1cc2nc(N)n3nc(C4CCC(C)N(c5cnn(C(C)(C)CO)c5)C4)nc3c2cc1F (single isomer, unassigned) [Example 128]
16 |  |  | 8.2 nM | 284 nM | COc1cc2nc(N)n3nc(C4CCC(C)N(c5cnn(CC6(CF)COC6)c5)C4)nc3c2cc1F (single isomer, unassigned) [Example 47, 9-fluor-2-((3R,6S or 3S,6R)-1-(1((3-(fluoromethyl)oxetan-3-yl)methyl)-1H-pyrazol-4-yl)-6-methylpiperidin-3-yl)-8-methoxy-[1,2,4]triazolo[1,5-c]quinazolin-5-amine]
17 |  |  | 127 nM | 1520 nM | Cn1cc(N2CCCC(c3nc4c5c(F)c(F)ccc5nc(N)n4n3)C2)cn1 (single isomer, unassigned) [Example 107, (R or S)-9,10-difluoro-2-(1-(1-methyl-1H-pyrazol-4-yl)piperidin-3-yl)-[1,2,4]triazolo[1,5-c]quinazolin-5-amine]
18 |  |  | 8.6 nM | 27.6 nM | COc1cc2nc(N)n3nc([C@@H]4CCCN(c5ccc(OC(F)F)nc5)C4)nc3c2cc1F [Example 22, (R)-2-(1-(6-(difluoromethoxy)pyridin-3-yl)piperidin-3-yl)-9-fluoro-8-methoxy[1,2,4]triazolo[1,5-c]quinazolin-5-amine]
19 |  |  | 51.6 nM | 1300 nM | COc1cc(F)cc2c1nc(N)n1nc(C3CCC(C)N(c4cnn(CC(C)(C)O)c4)C3)nc21 (single isomer, unassigned) [Example 119, 1-(4-((2S or 2R,5S or 5R)-5-(5-amino-9-fluoro-7-methoxy-[1,2,4]triazolo[1,5-c]quinazolin-2-yl)-2-methylpiperidin-1-yl)-1H-pyrazol-1-yl)-2-methylpropan-2-ol]
